Read-outs that look alike come from different tables or passages of the source. Marks after values point to notes of the source that are not given here.
Legend:
ovine COX‐1 = molecular target: T1, ovine COX‐1 (Ovis aries, UniProt P05979); test: COX Fluorescent Inhibitor Screening Assay Kit (Cayman), COX-1 inhibition; format: biochemical; settings: for IC50: read-out: IC50 [μM] (95% CI) COX‐1, absolute IC50
T1 construct: purchased Cayman Chemical Company
T1 sequence (P05979 25-600): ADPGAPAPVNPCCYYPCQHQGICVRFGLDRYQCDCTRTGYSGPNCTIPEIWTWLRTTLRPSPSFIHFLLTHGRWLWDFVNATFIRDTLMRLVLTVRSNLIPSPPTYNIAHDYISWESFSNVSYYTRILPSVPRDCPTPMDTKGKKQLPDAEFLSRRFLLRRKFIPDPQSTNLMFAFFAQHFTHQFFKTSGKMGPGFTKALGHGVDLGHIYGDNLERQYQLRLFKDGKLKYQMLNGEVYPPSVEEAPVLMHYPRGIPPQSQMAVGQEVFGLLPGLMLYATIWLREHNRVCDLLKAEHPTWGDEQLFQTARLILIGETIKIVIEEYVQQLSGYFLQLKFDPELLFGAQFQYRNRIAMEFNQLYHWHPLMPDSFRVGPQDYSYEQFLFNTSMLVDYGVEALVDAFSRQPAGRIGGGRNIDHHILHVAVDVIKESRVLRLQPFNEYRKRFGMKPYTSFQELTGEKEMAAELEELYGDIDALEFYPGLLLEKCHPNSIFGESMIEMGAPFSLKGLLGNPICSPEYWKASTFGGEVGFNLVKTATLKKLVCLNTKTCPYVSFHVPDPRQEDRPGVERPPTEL
Text: (§1) For the cyclooxygenase assays, the fluorescence‐based COX assay “COX Fluorescent Inhibitor Screening Assay Kit” (Cayman Chemical Company, Ann Arbor, MI, USA) was used according to the manufacturer's instructions. […] All concentrations have been tested at least in duplicate.

recombinant human COX‐2 = molecular target: T2, recombinant human COX‐2 (Homo sapiens, UniProt P35354); format: biochemical; settings: for IC50: read-out: IC50 [μM] (95% CI) COX‐2
T2 construct: purchased Cayman Chemical Company
T2 sequence (P35354 18-604): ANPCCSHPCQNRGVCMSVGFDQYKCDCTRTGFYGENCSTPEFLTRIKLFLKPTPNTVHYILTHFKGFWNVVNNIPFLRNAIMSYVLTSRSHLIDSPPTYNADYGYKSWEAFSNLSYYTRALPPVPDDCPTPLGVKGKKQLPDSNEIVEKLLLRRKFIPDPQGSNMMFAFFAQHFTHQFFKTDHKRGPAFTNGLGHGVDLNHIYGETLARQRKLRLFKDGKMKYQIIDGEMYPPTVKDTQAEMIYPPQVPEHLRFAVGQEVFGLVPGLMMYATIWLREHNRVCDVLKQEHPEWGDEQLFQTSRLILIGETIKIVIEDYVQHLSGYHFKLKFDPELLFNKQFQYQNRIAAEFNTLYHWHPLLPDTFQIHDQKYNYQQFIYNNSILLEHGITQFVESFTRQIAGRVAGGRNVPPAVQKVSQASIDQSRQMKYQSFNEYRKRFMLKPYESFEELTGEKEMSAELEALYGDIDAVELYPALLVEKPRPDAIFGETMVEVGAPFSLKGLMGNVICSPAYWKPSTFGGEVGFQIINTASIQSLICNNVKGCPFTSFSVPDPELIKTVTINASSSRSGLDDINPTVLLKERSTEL
Text: as §1

[1] = Stability in DMSO/water (1:1, v/v) by HPLC-UV-MS or analytical HPLC; format: physicochemical; settings: DMSO/H2O (1:1, v/v), RP-HPLC
Method: The stability of compounds 6, 7, 9, 10, 13a,b, and 14a,b in aqueous solution was studied by HPLC‐UV‐MS or analytical HPLC measurements as well (see Supporting Information for details, “4 HPLC Stability Determination of Compounds 6, 7, 9, 10, 13a, 13b, 14a, 14b”). All compounds except 13a were stable for at least one day (Supporting Information, section 4 ).
The stability was evaluated for all compounds in a mixture of DMSO, dried over molecular sieve, and LC‐MS grade water (1:1, v/v) with the same HPLC‐UV‐MS systems as described under “Purity Determination”. The column, eluent system, flow and MS tool were operated in the same way. For the stability determination, a few milligrams of each compound were dissolved in 1 mL DMSO. To dissolve the compounds, they were vortexed and heated up if necessary. The stock solution was further diluted with water. For that, 50–100 μL of the stock solution was transferred into a vial and the same amount of LC‐MS grade water was added. The two solvents were mixed thoroughly, and the measurement with HPLC‐UV‐MS was directly started. Additionally, measurements were performed in a varying time frame, from 15 or 20 min to 1 day. Usually, the injection volume was 10 μL, and before the measurement of the samples, a blank run with only DMSO/LC‐MS grade water (1:1, v/v) was performed. […] For the latter compounds, the aforementioned system (Agilent 1200 system) and the following gradient was used: 0–3 min 45% eluent B, 3–28 min 45%–95% eluent B, 28–34 min 95% eluent B, 34–35 min 95%–45% eluent B, then 35–40 min 45% eluent B, flow: 0.75 mL min^−1.
4 Stability Determination of Compounds 6, 7, 9, 10, 13a, 13b, 14a, 14b by HPLC A few milligrams of each compound have been dissolved in 1 mL DMSO, which was stored over molecular sieve.
50-100 µL of the DMSO solution have been transferred into a separate vial together with the same amount of LC-MS grade water. The mixture was measured directly after water addition and in time intervals from 20 min to 1 d by HPLC-UV-MS or analytical HPLC measurements. All compounds were stable for at least one day except for […]
rather for its nido-carborane analog, which was anyway the most prominent side product, no further stability measurements have been performed.
Figure S74. RP-HPLC chromatograms of blank (DMSO/H2O, black and green) and compound 6, retention time: 10.5 min, purity after 1 d: >98%.
Figure S75. RP-HPLC chromatograms of blank (DMSO/H2O, blue and pink) and compound 7, retention time: 8.3 min, purity after 1 d: >96%. […]

[2] = 100 μM, n = 2, n.i. = no inhibition (%‐inhibition < 5 %)
[3] = Inhibition at 98 μM instead of 100 μM, n = 2

For “Cesium (R/S)‐2‐[2‐fluoro‐(1,1'‐biphenyl)‐4‐yl]‐N‐(7,8‐nido‐dicarbadodecahydroundecaborate(−1))‐ethylpropanamide [Compound 14b]”, the “%‐inhibition at 100 [μM] (n = 2) COX‐1” value (ovine COX‐1; n = 2) was 72%, the “SI = IC50(COX‐1)/IC50(COX‐2)” value (recombinant human COX‐2) was 2.7 and the “%‐inhibition at 100 [μM] (n = 2) COX‐2” value (recombinant human COX‐2; 100 µM) was 80%.
With “Cesium (R/S)‐2‐[2‐fluoro‐(1,1′‐biphenyl)‐4‐yl]‐N‐(7,8‐nido‐dicarbadodecahydroundecaborate(−1))‐methylpropanamide [Compound 14a]” the “%‐inhibition at 100 [μM] (n = 2) COX‐1” value (ovine COX‐1; n = 2) was 94%, the “SI = IC50(COX‐1)/IC50(COX‐2)” value (recombinant human COX‐2) was 1.9 and the “%‐inhibition at 100 [μM] (n = 2) COX‐2” value (recombinant human COX‐2; 100 µM) was 91%.
In the case of “Cesium N‐[3‐(7,8‐nido‐dicarbadodecahydroundecaborate(−1))propyl]‐4‐[5‐(p‐tolyl)‐3‐(trifluoromethyl)‐1H‐pyrazol‐1‐yl]benzenesulfonamide [Compound 7]”, the “%‐inhibition at 100 [μM] (n = 2) COX‐1” value (ovine COX‐1; n = 2) is reported as 94%, the IC50 (ovine COX‐1) is reported as 11.2 µM and the “%‐inhibition at 100 [μM] (n = 2) COX‐2” value (recombinant human COX‐2; [2]) is reported as 100%. For the same substance, the IC50 (recombinant human COX‐2; absolute IC50) was 8.75 µM, the “SI = IC50(COX‐1)/IC50(COX‐2)” value (recombinant human COX‐2; selectivity index) was 1.28 and the “purity after 1 d” value [1] was > 96%.
In the case of “Di‐cesium N,N‐bis[3‐(7,8‐nido‐dicarbadodecahydroundecaborate(−1))propyl]‐4‐[5‐(p‐tolyl)‐3‐(trifluoromethyl)‐1H‐pyrazol‐1‐yl]benzenesulfonamide [Compound 10]”, the “%‐inhibition at 100 [μM] (n = 2) COX‐1” value (ovine COX‐1; n = 2) is reported as 103%, the IC50 (ovine COX‐1) is reported as 3.49 µM and the “%‐inhibition at 100 [μM] (n = 2) COX‐2” value (recombinant human COX‐2; [2]) is reported as 103%. The “IC50 [μM] (95% CI) COX‐2” value (recombinant human COX‐2; absolute IC50) was “sub‐μM range”, the IC50 (recombinant human COX‐2; absolute IC50) was 0.34 µM and the “SI = IC50(COX‐1)/IC50(COX‐2)” value (recombinant human COX‐2; selectivity index) was 10.3. For the same substance, the “purity after 1 d” value [1] was > 99%.
In the case of “N,N‐Bis[3‐(1,2‐closo‐dicarbadodecaborane)propyl]‐4‐[5‐(p‐tolyl)‐3‐(trifluoromethyl)‐1H‐pyrazol‐1‐yl]benzenesulfonamide [Compound 9]”, the IC50 (ovine COX‐1) is reported as > 320 µM and the “purity after 1 d” value [1] is reported as > 99%.
For “N‐[3‐(1,2‐closo‐dicarbadodecaborane)propyl]‐4‐[5‐(p‐tolyl)‐3‐(trifluoromethyl)‐1H‐pyrazol‐1‐yl]benzenesulfonamide [Compound 6]”, the “%‐inhibition at 100 [μM] (n = 2) COX‐1” value (ovine COX‐1; n = 2) was ≤ 55%, the “%‐inhibition (n = 2) COX‐1” value (ovine COX‐1; [3]) was 9 ^b) % and the “%‐inhibition at 100 [μM] (n = 2) COX‐2” value (recombinant human COX‐2; [2]) was ≤ 55%. For the same substance, the “%‐inhibition (n = 2) COX‐2” value (recombinant human COX‐2; [3]) was 54 ^b) %, the IC50 (recombinant human COX‐2; absolute IC50) was 120 µM and the “purity after 1 d” value [1] was > 98%.
